Assay results published in ChEMBL document CHEMBL3297644, “Discovery of a 4-aryloxy-1H-pyrrolo[3,2-c]pyridine and a 1-aryloxyisoquinoline series of TRPA1 antagonists” (Bioorg Med Chem Lett, 2014).
pIC50: −log10 of the molar value. In brackets after ≈: the same amount, converted by molar mass. Values belong to the compound of their own block, whether it stands above or below them.

How the values were obtained:
[1] = target: Transient receptor potential cation channel subfamily A member 1 (Homo sapiens, UniProt O75762); assay: Antagonist activity at human TRPA1 expressed in HEK293-TREx cells assessed as intracellular level after 48 of 72 hrs by Fluo-4 NW staining-based fluorescence analysis; assay type: cell-based
[2] = Thermodynamic solubility of the compound in buffer at pH 7.4 by HPLC/UV detection; assay type: physicochemical; details: read-out: Therm_solubility
Cytochrome P450 2C9 = Cytochrome P450 2C9 (Homo sapiens, UniProt P11712); assay: Inhibition of CYP2C9 in human liver microsomes by LC-MS/MS/competitive screening assay; assay type: ADME
Cytochrome P450 3A4 = Cytochrome P450 3A4 (Homo sapiens, UniProt P08684); assay: Inhibition of CYP3A4 in human liver microsomes by LC-MS/MS/competitive screening assay; assay type: ADME
[3] = Chemical stability in buffer solution assessed as compound remaining at pH 14 at 70 degC after 24 hrs by HPLC/UV detection; assay type: physicochemical; details: read-out: Stability
[4] = Chemical stability in buffer solution assessed as compound remaining at pH 1 at 70 degC after 24 hrs by HPLC/UV detection; assay type: physicochemical; details: read-out: Stability
[5] = Intrinsic clearance in human liver microsomes at 1 uM in presence of NADPH; assay type: ADME; details: read-out: CLH
[6] = Apparent permeability across apical to basolateral side in human Caco2 cells at 10 uM at pH 7.4 by Transwell assay; assay type: ADME, cell-based; details: Caco-2, pH 7.4
Cytochrome P450 2C19 = Cytochrome P450 2C19 (Homo sapiens, UniProt P33261); assay: Inhibition of CYP2C19 in human liver microsomes by LC-MS/MS/competitive screening assay; assay type: ADME
Cytochrome P450 1A2 [7] = target: T1, Cytochrome P450 1A2 (Homo sapiens, UniProt P05177); assay: Inhibition of CYP1A2 in human liver microsomes by LC-MS/MS/competitive screening assay; assay type: ADME
T1 sequence (P05177 whole entry): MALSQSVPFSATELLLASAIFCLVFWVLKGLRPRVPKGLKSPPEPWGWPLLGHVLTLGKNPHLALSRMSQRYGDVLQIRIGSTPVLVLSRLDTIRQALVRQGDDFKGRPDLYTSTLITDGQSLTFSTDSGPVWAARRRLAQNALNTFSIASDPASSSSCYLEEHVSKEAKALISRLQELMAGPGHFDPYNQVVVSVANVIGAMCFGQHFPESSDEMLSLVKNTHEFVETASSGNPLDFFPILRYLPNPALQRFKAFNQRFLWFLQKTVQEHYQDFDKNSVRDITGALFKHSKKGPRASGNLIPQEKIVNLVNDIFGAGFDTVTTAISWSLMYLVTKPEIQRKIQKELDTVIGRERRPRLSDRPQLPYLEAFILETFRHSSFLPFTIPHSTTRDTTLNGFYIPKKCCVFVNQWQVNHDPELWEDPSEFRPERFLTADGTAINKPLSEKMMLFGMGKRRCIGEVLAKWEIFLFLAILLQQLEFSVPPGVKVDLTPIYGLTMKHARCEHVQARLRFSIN

[8] = target: Transient receptor potential cation channel subfamily V member 1 (Homo sapiens, UniProt Q8NER1); assay: Inhibition of human TRPV1
[9] = target: Transient receptor potential cation channel subfamily A member 1 (Rattus norvegicus, UniProt Q6RI86); assay: Antagonist activity at rat TRPA1 expressed in HEK293-TREx cells assessed as intracellular level after 48 of 72 hrs by Fluo-4 NW staining-based fluorescence analysis; assay type: cell-based
Cytochrome P450 1A2 [10] = target: T1, Cytochrome P450 1A2; assay: Time dependent inhibition of CYP1A2 in human liver microsomes assessed as shift at 10 uM; assay type: ADME; details: pooled result: one value given for 4 cell lines, strains, targets or settings
[11] = Chemical stability in buffer solution assessed as compound remaining at pH 7 at 70 degC after 24 hrs by HPLC/UV detection; assay type: physicochemical; details: read-out: Stability
Cytochrome P450 2D6 = Cytochrome P450 2D6 (Homo sapiens, UniProt P10635); assay: Inhibition of CYP2D6 in human liver microsomes by LC-MS/MS/competitive screening assay; assay type: ADME
Chain of Cytochrome P450 2D6 (P10635 whole entry): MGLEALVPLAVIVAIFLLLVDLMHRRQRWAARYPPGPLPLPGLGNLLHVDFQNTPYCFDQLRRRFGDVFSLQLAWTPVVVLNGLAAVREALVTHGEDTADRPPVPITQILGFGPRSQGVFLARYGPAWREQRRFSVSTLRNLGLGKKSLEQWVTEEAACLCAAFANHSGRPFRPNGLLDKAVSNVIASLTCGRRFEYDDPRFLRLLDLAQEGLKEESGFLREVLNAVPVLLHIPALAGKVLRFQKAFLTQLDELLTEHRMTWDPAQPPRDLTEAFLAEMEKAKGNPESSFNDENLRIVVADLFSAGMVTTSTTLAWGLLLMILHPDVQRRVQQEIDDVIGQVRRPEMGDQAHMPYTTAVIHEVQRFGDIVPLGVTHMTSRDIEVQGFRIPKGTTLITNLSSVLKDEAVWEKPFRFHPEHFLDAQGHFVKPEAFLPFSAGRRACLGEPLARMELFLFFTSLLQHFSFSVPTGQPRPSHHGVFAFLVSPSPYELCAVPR

Chain of Cytochrome P450 2C19 (P33261 whole entry): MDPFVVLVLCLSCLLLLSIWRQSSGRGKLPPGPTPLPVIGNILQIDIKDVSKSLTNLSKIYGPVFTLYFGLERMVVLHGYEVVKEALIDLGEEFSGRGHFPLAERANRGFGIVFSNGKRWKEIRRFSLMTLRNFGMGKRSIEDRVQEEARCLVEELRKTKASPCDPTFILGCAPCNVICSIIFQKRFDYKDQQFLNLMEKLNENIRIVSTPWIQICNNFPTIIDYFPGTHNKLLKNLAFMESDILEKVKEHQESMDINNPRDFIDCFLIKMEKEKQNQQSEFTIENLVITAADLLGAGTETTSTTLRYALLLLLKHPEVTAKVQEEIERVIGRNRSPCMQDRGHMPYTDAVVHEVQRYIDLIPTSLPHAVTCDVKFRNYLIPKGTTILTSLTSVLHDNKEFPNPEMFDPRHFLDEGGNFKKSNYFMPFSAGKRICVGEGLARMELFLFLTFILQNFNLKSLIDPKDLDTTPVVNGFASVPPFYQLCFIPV
Chain of Cytochrome P450 3A4 (P08684 whole entry): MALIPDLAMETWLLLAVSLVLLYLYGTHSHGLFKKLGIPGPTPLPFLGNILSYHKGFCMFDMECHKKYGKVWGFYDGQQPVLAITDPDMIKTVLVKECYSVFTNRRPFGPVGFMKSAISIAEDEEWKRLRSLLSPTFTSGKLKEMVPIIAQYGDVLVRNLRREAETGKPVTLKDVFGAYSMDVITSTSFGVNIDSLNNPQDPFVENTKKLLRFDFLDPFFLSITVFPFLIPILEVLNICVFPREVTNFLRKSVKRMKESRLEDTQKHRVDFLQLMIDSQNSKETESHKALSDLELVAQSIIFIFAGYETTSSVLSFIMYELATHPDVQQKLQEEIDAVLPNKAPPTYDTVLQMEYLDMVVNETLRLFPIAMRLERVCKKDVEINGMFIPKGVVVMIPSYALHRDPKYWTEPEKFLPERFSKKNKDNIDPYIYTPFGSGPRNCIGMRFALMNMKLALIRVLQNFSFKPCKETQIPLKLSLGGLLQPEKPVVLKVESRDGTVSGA
Chain of Cytochrome P450 2C9 (P11712 whole entry): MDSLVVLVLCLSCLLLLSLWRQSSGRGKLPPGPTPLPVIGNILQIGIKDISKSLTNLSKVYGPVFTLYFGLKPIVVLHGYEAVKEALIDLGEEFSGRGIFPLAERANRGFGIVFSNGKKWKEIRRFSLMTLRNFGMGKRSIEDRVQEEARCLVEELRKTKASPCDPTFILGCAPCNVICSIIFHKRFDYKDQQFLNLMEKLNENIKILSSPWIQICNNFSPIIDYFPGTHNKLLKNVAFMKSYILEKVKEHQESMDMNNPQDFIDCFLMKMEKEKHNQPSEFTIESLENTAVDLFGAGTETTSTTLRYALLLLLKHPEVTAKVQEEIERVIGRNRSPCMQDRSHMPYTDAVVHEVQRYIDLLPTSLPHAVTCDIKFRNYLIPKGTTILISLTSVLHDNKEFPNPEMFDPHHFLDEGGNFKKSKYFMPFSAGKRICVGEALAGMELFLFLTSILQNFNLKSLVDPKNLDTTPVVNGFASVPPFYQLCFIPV
Chain of Transient receptor potential cation channel subfamily A member 1 (Rattus norvegicus, UniProt Q6RI86) (Q6RI86 whole entry): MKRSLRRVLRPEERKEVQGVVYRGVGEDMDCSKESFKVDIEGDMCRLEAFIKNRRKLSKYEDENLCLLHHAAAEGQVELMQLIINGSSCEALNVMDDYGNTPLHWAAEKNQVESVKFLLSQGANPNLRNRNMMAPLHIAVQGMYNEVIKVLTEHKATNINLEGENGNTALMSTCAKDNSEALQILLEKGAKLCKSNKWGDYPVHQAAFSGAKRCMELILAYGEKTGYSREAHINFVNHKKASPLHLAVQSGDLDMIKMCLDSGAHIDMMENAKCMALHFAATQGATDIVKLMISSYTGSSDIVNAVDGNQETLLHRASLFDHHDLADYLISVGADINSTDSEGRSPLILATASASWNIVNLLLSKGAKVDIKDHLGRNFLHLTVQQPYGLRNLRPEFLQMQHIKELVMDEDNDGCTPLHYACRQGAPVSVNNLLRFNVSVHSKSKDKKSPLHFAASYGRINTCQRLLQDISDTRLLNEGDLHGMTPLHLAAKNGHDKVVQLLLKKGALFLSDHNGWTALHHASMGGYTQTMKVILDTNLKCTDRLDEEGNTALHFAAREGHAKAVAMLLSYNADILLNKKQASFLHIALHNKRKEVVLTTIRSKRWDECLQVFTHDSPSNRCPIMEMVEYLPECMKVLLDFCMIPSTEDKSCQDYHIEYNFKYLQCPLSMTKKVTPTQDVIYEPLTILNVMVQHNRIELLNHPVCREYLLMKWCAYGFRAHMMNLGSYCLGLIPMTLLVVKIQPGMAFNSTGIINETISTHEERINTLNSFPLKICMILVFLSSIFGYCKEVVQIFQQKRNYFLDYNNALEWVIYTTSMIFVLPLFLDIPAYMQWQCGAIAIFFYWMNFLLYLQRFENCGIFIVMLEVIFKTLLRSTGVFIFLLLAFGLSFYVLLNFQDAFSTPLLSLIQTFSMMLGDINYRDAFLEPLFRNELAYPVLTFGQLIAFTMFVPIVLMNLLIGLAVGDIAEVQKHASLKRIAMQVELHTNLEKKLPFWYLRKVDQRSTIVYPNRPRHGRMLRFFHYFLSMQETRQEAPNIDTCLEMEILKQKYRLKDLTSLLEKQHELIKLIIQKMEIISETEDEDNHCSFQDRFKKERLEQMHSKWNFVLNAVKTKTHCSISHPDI
Chain of Transient receptor potential cation channel subfamily A member 1 (Homo sapiens, UniProt O75762) (O75762 whole entry): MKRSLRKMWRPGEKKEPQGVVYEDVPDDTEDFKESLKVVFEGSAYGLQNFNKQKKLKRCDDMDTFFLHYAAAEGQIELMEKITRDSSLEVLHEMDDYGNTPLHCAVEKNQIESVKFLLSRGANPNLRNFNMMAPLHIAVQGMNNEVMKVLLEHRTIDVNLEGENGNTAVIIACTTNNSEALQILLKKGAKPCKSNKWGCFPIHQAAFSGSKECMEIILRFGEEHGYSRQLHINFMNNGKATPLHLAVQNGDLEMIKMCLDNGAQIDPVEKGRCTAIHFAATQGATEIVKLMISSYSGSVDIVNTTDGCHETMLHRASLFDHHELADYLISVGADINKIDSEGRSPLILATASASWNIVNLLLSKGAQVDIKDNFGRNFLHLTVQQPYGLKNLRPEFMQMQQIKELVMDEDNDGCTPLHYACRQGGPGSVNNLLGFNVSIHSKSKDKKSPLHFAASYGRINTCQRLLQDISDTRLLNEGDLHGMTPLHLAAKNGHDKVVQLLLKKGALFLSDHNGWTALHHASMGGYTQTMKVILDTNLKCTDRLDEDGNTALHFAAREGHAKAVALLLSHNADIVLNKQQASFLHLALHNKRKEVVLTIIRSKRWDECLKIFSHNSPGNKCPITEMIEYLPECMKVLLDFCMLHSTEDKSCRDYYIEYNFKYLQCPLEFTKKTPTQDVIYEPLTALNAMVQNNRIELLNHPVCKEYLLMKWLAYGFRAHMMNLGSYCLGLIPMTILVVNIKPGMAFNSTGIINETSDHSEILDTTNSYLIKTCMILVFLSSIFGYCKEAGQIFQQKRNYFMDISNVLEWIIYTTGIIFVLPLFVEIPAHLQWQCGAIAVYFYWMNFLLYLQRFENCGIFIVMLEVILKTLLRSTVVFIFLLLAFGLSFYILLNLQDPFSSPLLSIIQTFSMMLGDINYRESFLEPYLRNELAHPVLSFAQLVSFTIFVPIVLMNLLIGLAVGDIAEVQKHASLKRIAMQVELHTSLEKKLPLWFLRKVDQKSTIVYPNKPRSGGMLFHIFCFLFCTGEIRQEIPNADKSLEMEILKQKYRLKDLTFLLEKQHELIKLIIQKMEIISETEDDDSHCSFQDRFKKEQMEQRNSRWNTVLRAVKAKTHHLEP
Chain of Transient receptor potential cation channel subfamily V member 1 (Q8NER1 whole entry): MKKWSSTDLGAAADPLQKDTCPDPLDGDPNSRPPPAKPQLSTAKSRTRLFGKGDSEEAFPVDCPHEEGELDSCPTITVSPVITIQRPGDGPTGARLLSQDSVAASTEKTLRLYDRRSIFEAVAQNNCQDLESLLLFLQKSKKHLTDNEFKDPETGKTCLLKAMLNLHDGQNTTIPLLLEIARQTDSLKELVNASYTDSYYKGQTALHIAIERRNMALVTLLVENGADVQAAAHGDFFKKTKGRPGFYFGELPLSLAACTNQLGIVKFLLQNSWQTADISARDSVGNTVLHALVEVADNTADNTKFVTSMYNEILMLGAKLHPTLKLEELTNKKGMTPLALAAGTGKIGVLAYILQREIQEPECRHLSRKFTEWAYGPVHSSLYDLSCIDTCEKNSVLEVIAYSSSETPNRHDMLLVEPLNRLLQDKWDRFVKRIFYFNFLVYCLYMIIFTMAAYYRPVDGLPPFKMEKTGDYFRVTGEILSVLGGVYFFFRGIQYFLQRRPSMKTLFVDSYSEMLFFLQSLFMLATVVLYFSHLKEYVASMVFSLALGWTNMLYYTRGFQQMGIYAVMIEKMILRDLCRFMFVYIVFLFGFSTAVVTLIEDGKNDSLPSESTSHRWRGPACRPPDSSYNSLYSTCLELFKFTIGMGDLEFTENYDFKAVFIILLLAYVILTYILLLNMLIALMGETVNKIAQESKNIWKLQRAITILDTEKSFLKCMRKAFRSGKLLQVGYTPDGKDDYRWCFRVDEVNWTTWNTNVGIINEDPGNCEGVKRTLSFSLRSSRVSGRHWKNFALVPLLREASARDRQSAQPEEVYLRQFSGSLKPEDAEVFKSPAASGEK

- pIC50 [1]: < 4.49
SMILES: Fc1ccc(Oc2ccncn2)c(F)c1

- pIC50 [1]: < 4.49
SMILES: Fc1ccc(Oc2ccnc3[nH]ccc23)c(F)c1

- pIC50 [1]: < 4.49
SMILES: Fc1cc(F)c(Oc2ncnc3[nH]ccc23)c(F)c1

- pIC50 [1]: < 4.49
SMILES: Fc1ccc(Oc2ncnc3ccccc23)c(F)c1

- pIC50 [1]: 5.70
SMILES: Cc1[nH]c2ncnc(Oc3ccc(F)cc3F)c2c1C

- pIC50 [1]: < 4.49
SMILES: Fc1cccc(Oc2ncnc3[nH]ccc23)c1

- pIC50 [1]: 5.51
SMILES: Fc1ccc(Oc2nccc3ccccc23)c(F)c1

- pIC50 [1]: 5.52
SMILES: Fc1ccc(Oc2ncnc3[nH]ccc23)cc1F

- pIC50 [1]: 5.57
SMILES: Fc1cccc(Oc2ncnc3[nH]ccc23)c1F

- solubility thermodynamic [2]: 33 µM (≈ 7.56 µg/mL)
- pIC50 (Cytochrome P450 2C9): < 4.70
- pIC50 (Cytochrome P450 3A4): < 4.70
- remaining at 24 h [3]: 100%
- remaining at 24 h [4]: 10%
- microsomal CLint at 1 µM [5]: 24 µL/min/mg
- Papp A→B at 10 µM [6]: 18 ×10⁻⁶ cm/s
- pIC50 (Cytochrome P450 2C19): < 4.70
- pIC50 (Cytochrome P450 1A2 [7]): < 4.70
- pIC50 [8]: < 5.00
- pIC50 [9]: 5.52
- TDI (Cytochrome P450 1A2 [10]): 44%
- remaining at 24 h [11]: 100%
- pIC50 (Cytochrome P450 2D6): < 4.70
- pIC50 [1]: 6.39
SMILES: Fc1ccc(Oc2ncnc3[nH]ccc23)cc1

- pIC50 [1]: < 4.49
SMILES: Cc1ccc(Oc2ncnc3[nH]ccc23)cc1

- pIC50 [1]: < 4.49
SMILES: Fc1ccc(Cc2ncnc3[nH]ccc23)cc1

- pIC50 [1]: < 4.49
SMILES: Fc1ccc(Oc2ncnc3ccoc23)c(F)c1

- pIC50 [1]: 5.92
SMILES: Cc1cc2c(Oc3ccc(F)cc3F)ncnc2[nH]1

- pIC50 [1]: 5.66
SMILES: Fc1ccc(Oc2nccc3occc23)c(F)c1

- pIC50 [1]: < 4.49
SMILES: Clc1ccc(Oc2ncnc3[nH]ccc23)cc1

- pIC50 [1]: 5.49
SMILES: c1ccc(Oc2ncnc3[nH]ccc23)cc1

- pIC50 [1]: 6.20
SMILES: COc1cc2ccnc(Oc3ccc(F)cc3F)c2cc1OC

- pIC50 [1]: < 4.49
SMILES: COc1ccc(Oc2ncnc3[nH]ccc23)cc1

- pIC50 [1]: 5.80
SMILES: CCc1c[nH]c2ncnc(Oc3ccc(F)cc3F)c12

- pIC50 [1]: < 4.49
SMILES: Cc1ccc(Oc2ncnc3[nH]ccc23)c(C)c1

- pIC50 [1]: < 4.49
SMILES: O=[N+]([O-])c1ccc(Oc2ncnc3[nH]ccc23)cc1

- solubility thermodynamic [2]: 24 µM (≈ 5.48 µg/mL)
- pIC50 (Cytochrome P450 2C9): < 4.70
- pIC50 (Cytochrome P450 3A4): < 4.70
- microsomal CLint at 1 µM [5]: 74 µL/min/mg
- Papp A→B at 10 µM [6]: 12 ×10⁻⁶ cm/s
- pIC50 (Cytochrome P450 2C19): < 4.70
- pIC50 (Cytochrome P450 1A2 [7]): < 4.70
- pIC50 [9]: 5.92
- TDI (Cytochrome P450 1A2 [10]): 31%
- pIC50 (Cytochrome P450 2D6): < 4.70
- pIC50 [1]: 6.51
SMILES: Fc1ccc(Oc2nccc3[nH]ccc23)cc1

- pIC50 [1]: 5.96
SMILES: Fc1ccc(Oc2nccc3ccoc23)c(F)c1

- pIC50 [1]: < 4.49
SMILES: Cn1ccc2c(Oc3ccc(F)cc3F)ncnc21

- solubility thermodynamic [2]: 8 µM (≈ 2.39 µg/mL)
- pIC50 (Cytochrome P450 2C9): 5.72
- pIC50 (Cytochrome P450 3A4): 5.72
- microsomal CLint at 1 µM [5]: 110 µL/min/mg
- Papp A→B at 10 µM [6]: 6 ×10⁻⁶ cm/s
- pIC50 (Cytochrome P450 2C19): 5.72
- pIC50 (Cytochrome P450 1A2 [7]): 5.72
- pIC50 [9]: 5.74
- pIC50 (Cytochrome P450 2D6): 5.72
- pIC50 [1]: 6.48
SMILES: COc1cc2ccnc(Oc3ccc(F)cc3)c2cc1OC

- pIC50 [1]: < 4.49
SMILES: N#Cc1ccc(Oc2ncnc3[nH]ccc23)cc1

- pIC50 [1]: < 4.49
SMILES: Cc1ccccc1Oc1ncnc2[nH]ccc12

- pIC50 [1]: < 4.49
SMILES: COc1ccc2ncnc(Oc3ccc(F)cc3F)c2c1

- pIC50 [1]: 6.20
SMILES: Fc1ccc(Oc2ncnc3[nH]cc(Cl)c23)c(F)c1

- pIC50 [1]: < 4.49
SMILES: Fc1ccc(Oc2ncnc3occc23)c(F)c1

- pIC50 [1]: 6.19
SMILES: Cc1c[nH]c2ncnc(Oc3ccc(F)cc3F)c12

- pIC50 [1]: 5.52
SMILES: COc1ccc2c(Oc3ccc(F)cc3F)ncnc2c1

- pIC50 [1]: < 4.49
SMILES: Fc1ccccc1Oc1ncnc2[nH]ccc12

- pIC50 [1]: 6.15
SMILES: Fc1ccc(Oc2ncnc3[nH]ccc23)c(F)c1

- pIC50 [1]: 5.96
SMILES: Fc1ccc(Oc2cccc3[nH]ccc23)c(F)c1

- pIC50 [1]: 5.92
SMILES: COc1cc2ncnc(Oc3ccc(F)cc3F)c2cc1OC

- pIC50 [1]: 5.60
SMILES: Fc1ccc(Oc2ncnc3[nH]cc(I)c23)c(F)c1

- pIC50 [1]: < 4.49
SMILES: Fc1ccc(Nc2ncnc3[nH]ccc23)cc1

- pIC50 [1]: 5.89
SMILES: COc1ccc2c(Oc3ccc(F)cc3F)nccc2c1

- solubility thermodynamic [2]: 77 µM (≈ 19 µg/mL)
- pIC50 (Cytochrome P450 2C9): < 4.70
- pIC50 (Cytochrome P450 3A4): < 4.70
- remaining at 24 h [3]: 100%
- remaining at 24 h [4]: 100%
- microsomal CLint at 1 µM [5]: 45 µL/min/mg
- Papp A→B at 10 µM [6]: 33 ×10⁻⁶ cm/s
- pIC50 (Cytochrome P450 2C19): < 4.70
- pIC50 (Cytochrome P450 1A2 [7]): < 4.70
- pIC50 [8]: < 5.00
- pIC50 [9]: 5.77
- TDI (Cytochrome P450 1A2 [10]): 42%
- remaining at 24 h [11]: 100%
- pIC50 (Cytochrome P450 2D6): < 4.70
- pIC50 [1]: 6.49
SMILES: Fc1ccc(Oc2nccc3[nH]ccc23)c(F)c1

- pIC50 [1]: < 4.49
SMILES: Fc1ccc(Oc2ncnc3cc[nH]c23)c(F)c1
